Experimental findings from patent US10724099B2, “Multiplex methods to assay mixed cell populations simultaneously” (The Broad Institute, Inc., priority 2012, dated 2020) are described below.

In assay [1] the test system is 100 human cancer cell lines. In words: PRISM, 100 barcoded cancer cell lines in mixture. The class given is cell-based. To be noted: for reduction in cell viability in BRAF V600E mutant lines compared to BRAF wild-type lines: mixture, day 5.
Description: PRISM detection was performed as follows. Genomic DNA from cell lysates was amplified by PCR using primers Biotin pLENTR4 (5′-Biotin-[sequence]-3′; SEQ ID NO:3) and pLENTF1 (5′-[sequence]-[sequence]-3′; SEQ ID NO:4). […] PCR without genomic DNA was hybridized with beads to serve as background control; signal for each bead was subtracted from each sample measurement. DMSO-treated cell mixtures were used as reference control for scaling of each cell line signal at the conclusion of each experiment (viability=100 for each cell line).
To investigate cancer vulnerabilities that are common in multiple cancer types and to examine the extent to which assaying cells in mixture may be complicated by cell-cell interactions, a panel of 100 barcoded cell lines was created comprising 18 different cancer types, and these were challenged in mixture with each of 43 anticancer compounds (including both targeted and general cytotoxic agents) in 8-point dose response. Each compound was represented by 3,200 functional measurements (100 cell lines×8 doses×4 replicates). The assays were performed as follows. Frozen mixtures of barcoded cell lines were thawed (day −2) and replated (day −1) into 384-well microtiter plates. On day 0, compounds suspended in DMSO were pinned into cultures to achieve final concentrations of 0.0012, 0.0049, 0.019, 0.078, 0.3125, 1.25, 5, or 20 μg ml-1. On day 5, cells were washed with phosphate-buffered saline and lysed for 60 minutes at 60° C. in 20 mM Tris-HCl (pH 8.4), 50 mM KCl, 0.45% IGEPAL CA-630 (Sigma cat. 18896), 0.45% Tween-20 (Sigma cat. P9416), and 10% proteinase K (Qiagen cat. 19133). Proteinase K was inactivated by a 15-minute incubation at 95° C.
In assay [2] the test system is 100 human cancer cell lines. In words: OPTICAL (Opera enumeration of nuclei), 100 cell lines grown individually. The class given is cell-based. The following applies: for reduction in cell viability in BRAF V600E mutant lines compared to BRAF wild-type lines: OPTICAL (Nuclei), individual lines, day 3. The text has this:
(§1) To quantitatively compare the 100-cell line PRISM performance to traditional methods, PRISM was compared to the activity of 23 compounds across the same 100 cell lines grown individually, as recently reported (using either ATP content measurements using the CellTiterGlo (CTG), or direct enumeration of cell nuclei using an optical fluorescent imaging method (PerkinElmer Opera system (hereafter, OPTICAL)) and thus served as a gold standard against which PRISM could be compared (Barretina et al., Nature 483, 603 (Mar. 29, 2012)). The same parental cell lines were used in all three methods; in the PRISM method, a barcoded “daughter” line was generated from the common parental cell line. Compounds used in assays were replica-plated from the same source. The cell lines grown individually were assayed at day 3 following compound treatment, whereas the 100-cell line PRISM mixture was analyzed at day 5.
(§2) To compare the three methods for measuring cell viability, the AUC (Area Under the Curve, measured from the viability vs. logarithm of drug concentration curve) was calculated for each combination of compound and cell line and for each viability measurement method. The CTG and OPTICAL methods were generally correlated with Pearson R=0.801. CTG and PRISM correlated with R=0.663, and OPTICAL and PRISM correlated with R=0.720. […] To investigate whether particular cell lines or specific compounds were disproportionately responsible for divergent predictive results between PRISM and the other methods, we examined the ratio between […] or […]. […] In these rare cases, either the different assay conditions (5-day assay with PRISM, 3-day assay with OPTICAL and CTG) or the assay of cells in mixture might explain the discrepancy. Overall, however, PRISM appears to perform comparably to these other methods in global determinations of sensitivity to compounds in these 100 cell lines.

Assay [3] concerns 100 human cancer cell lines. Briefly: CTG (CellTiterGlo ATP), 100 cell lines grown individually. Type of assay: cell-based. The following applies: for reduction in cell viability in BRAF V600E mutant lines compared to BRAF wild-type lines: CTG (ATP), individual lines, day 3.
Description: as §1, §2

In assay [4] the test system is HCT-116 cells. Briefly: Western blot phosphoserine 10-histone H3. Type of assay: cell-based. To be noted: 10 μM. How it is done: Finally, HCT-116 cells were treated with 10 μM of DMSO, barasertib, GSK1070916, MLN8054, BRD-7880, or tozasertib. Cells lysates were probed on Western blot using antibodies (diluted 1:1000) to histone H3 (Abcam cat. no. 24834), phosphoserine 10-histone H3 (Cell Signaling Technology cat no. 3377SS), aurora kinase B (Millipore cat. no. 04-1036), or beta-actin (Santa Cruz Biotechnology cat. no. sc-47778) and detected using a LI-COR Odyssey analyzer.
A general note: Immunoblotting shows a protein as a band on a membrane.

The subject of assay [5] is HCT-116 cells. In words: DNA content by propidium iodide flow cytometry. The class given is cell-based. To be noted: 10 μM, 24 hours or 48 hours. How it is done:
In addition, HCT-116 cells were treated with 10 μM of DMSO, or the Aurora Kinase Inhibitors barasertib, GSK1070916, MLN8054, BRD-7880, or tozasertib. 24 hours or 48 hours following treatment, cells were stained with propidium iodide and DNA content per cell was assessed using a Becton Dickinson LSR II flow cytometer.
(In general: In flow cytometry, cells or beads pass a laser one at a time.)

Assay [6] deals with 25 barcoded lung adenocarcinoma cell lines. Briefly: PRISM, mixture of 25 barcoded lung adenocarcinoma cell lines. Type of assay: cell-based, human. The following applies: for viability relative to DMSO-treated control (relative inhibition profile): cell lines in mixture, 0-10 μM (puromycin 0-10 μg/ml), day 5. How it is done:
PRISM detection was performed as follows. Genomic DNA from cell lysates was amplified by PCR using primers Biotin pLENTR4 (5′-Biotin-[…]-3′; SEQ ID NO:3) and pLENTF1 (5′-[…]-[…]-3′; SEQ ID NO:4). PCR product was hybridized to Luminex beads with covalently attached antisense barcodes, and streptavidin-phycoerythrin addition, washing, and detection on Luminex FlexMap machines was performed as previously described (Peck et al., Genome Biol 7, R61 (2006)). PCR without genomic DNA was hybridized with beads to serve as background control; signal for each bead was subtracted from each sample measurement. DMSO-treated cell mixtures were used as reference control for scaling of each cell line signal at the conclusion of each experiment (viability=100 for each cell line).
These lines were barcoded as described above, and equal numbers of cells of each cell lines were mixed together. Cell mixtures were plated in 384-well plates on day −1. On day 0, mixtures were challenged with compounds or vehicle, and on day 5 genomic DNA was harvested and barcodes quantitated. Barcode signal background was determined using beads hybridizing to PCR reactions lacking genomic DNA templates and was subtracted from all measurements. To account for different doubling times of cell lines and different baseline signals for each cell line, the barcode signal for each cell line was scaled to the signal of the vehicle-treated control at the end of the experiment (PRISM schema shown in FIG. 1A), so that the relative growth inhibition of each cell line was assessed.

Assay [7] has as its system 24 barcoded human lung adenocarcinoma cell lines. Briefly: In vivo PRISM, xenograft of 24 barcoded lung adenocarcinoma cell lines in NSG mice. To be noted: 50 mg/kg once daily by gavage for 16 days, vs vehicle.
Description: The tumors were than resected, and the abundance of each cell line measured by PRISM.
The subject of another assay is 308 kinases. In words: Kinase activity profiling, Millipore KinaseProfiler. The class given is biochemical.

Consider `Cn1cnc2c(F)c(Nc3ccc(Br)cc3Cl)c(C(=O)NOCCO)cc21` [AZD6244], for which the “reduction in cell viability in BRAF V600E mutant lines compared to BRAF wild-type lines” value (from here on “reduction in cell viability”) was “only a trend towards this reduction” in assay [1], “only a trend towards this reduction” in assay [2] and “significant reduction” in assay [3].
On to `CCn1cc(-c2ccnc3[nH]c(-c4cccc(CN(C)C)c4)cc23)c(-c2ccc(NC(=O)N(C)C)cc2)n1` [GSK1070916], for which the “phosphorylation of serine 10 on histone H3” value (shortened to “phosphorylation”) in the assay on HCT-116 cells [4] was “decrease phosphorylation of serine 10 on histone H3”. For the same compound, the “DNA content per cell” value in the assay with HCT-116 cells [5] is “increased DNA content”.
With `O=C(O)c1ccc(Nc2ncc3c(n2)-c2ccc(Cl)cc2C(c2c(F)cccc2F)=NC3)cc1` [MLN8054], the “phosphorylation” value in the assay with HCT-116 cells [4] is on record as “decrease phosphorylation of serine 10 on histone H3”. In addition, in the assay on HCT-116 cells [5], the “DNA content per cell” value is “increased DNA content”.
For `COc1cc(N2CCC(N3CCN(C)CC3)CC2)ccc1Nc1ncc(Cl)c(Nc2ccccc2S(=O)(=O)C(C)C)n1` [NVP-TAE-684], the “viability relative to DMSO-treated control (relative inhibition profile)” value in assay [6] was “selective killing was observed of H3122, but not H2228”.
With `CCCS(=O)(=O)Nc1ccc(F)c(C(=O)c2c[nH]c3ncc(Cl)cc23)c1F` [PLX4720], the “reduction in cell viability” value was “significant (two-tailed t-test, p<0.05) reductions in cell viability” in assay [1]; “significant (two-tailed t-test, p<0.05) reductions in cell viability” in assay [2]; “significant (two-tailed t-test, p<0.05) reductions in cell viability” in assay [3].
With `Cn1c(Nc2ccc(C(F)(F)F)cc2)nc2cc(Oc3ccnc(-c4ncc(C(F)(F)F)[nH]4)c3)ccc21` [RAF-265], the “reduction in cell viability” value in assay [1] was “a similar reduction was seen only with PRISM”.
`C#Cc1cccc(Nc2ncnc3cc(OCCOC)c(OCCOC)cc23)c1` [erlotinib]: the “sensitivity of HCC2935 among the 4 EGFR-mutant lines in vitro” value in assay [6] (HCC2935, FIG. 1b) was “least sensitive”. Further, the “viability relative to DMSO-treated control (relative inhibition profile)” value in assay [6] is “selective and dose-dependent decrease of four EGFR-mutant cell lines”. For the same compound, the “sensitivity of EGFR-mutant lines compared to EGFR wild-type lines” value is “trend towards increased sensitivity” in assay [1] (did not reach statistical significance); “trend towards increased sensitivity” in assay [2] (OPTICAL, did not reach statistical significance); “trend towards increased sensitivity” in assay [3] (CTG, did not reach statistical significance). The “representation of the detectable 19 wt-EGFR lines” value in assay [7] was “mostly unchanged or increased in representation”.
For `COc1ccc(C[C@H](N)C(=O)N[C@H]2[C@@H](O)[C@H](n3cnc4c(N(C)C)ncnc43)O[C@@H]2CO)cc1` [puromycin], in assay [6], the “viability relative to DMSO-treated control (relative inhibition profile)” value was “uniform cell death across the cell line mixture”.
Regarding `CNC(=O)c1cc(Oc2ccc(NC(=O)Nc3ccc(Cl)c(C(F)(F)F)c3)cc2)ccn1` [sorafenib], the “reduction in cell viability” value in assay [1], in assay [2] and in assay [3] was “did not demonstrate significant reductions” each time.
`Cc1cc(Nc2cc(N3CCN(C)CC3)nc(Sc3ccc(NC(=O)C4CC4)cc3)n2)[nH]n1` [tozasertib]: the “phosphorylation” value in the assay on HCT-116 cells [4] is on record as “decrease phosphorylation of serine 10 on histone H3”. Besides, the “DNA content per cell” value in the assay on HCT-116 cells [5] is given as “increased DNA content”. For the same compound, the “significant inhibition (defined as activity<25% control) across 308 kinases” value in the assay with 308 kinases was “inhibited aurora kinases A, B, and C, in addition to several other kinases”.
